Results on 20 compounds are retold here after US5821363A, “Antineoplastic use and pharmaceutical compositions containing them” (priority 1996, dated 1998).

What all share (type): cell-based
Experiment [1] deals with L1210 mouse leukemia carcinoma cells. The experiment in a line: cytotoxicity / inhibition of cell proliferation in L1210 leukemia cells.
In experiment [2] the test system is KB-V1. The experiment in a line: killing of multidrug resistant KB-V1 cells. The following applies: for IC50: Homo sapiens.
Experiment [3] has as its system KB-3-1. Briefly: killing of drug sensitive (non-MDR) KB-3-1 cells. The settings on record: Homo sapiens.
Experiment [4] has as its system A2780 human ovarian carcinoma. Briefly: cytotoxicity in A2780 human ovarian carcinoma cells.
Where [5] appears, read: L1210, read-out: L1210 (IC50 μg/ml).
[6] abbreviates: KB-V1 multidrug resistant cells, Table III, read-out: KB-V1 (IC50; nM).
The mark [7] stands for this setting: ratio of IC50 KB-V1 to IC50 KB-3-1.
Where [8] appears, read: L1210 leukemia, Table I, 50% inhibition of cell proliferation vs untreated control, read-out: L1210 (IC50 μg/ml).
Setting [9] is: KB-3-1 drug sensitive cells, Table III, read-out: KB-3-1 (IC50; nM).
The mark [10] stands for this setting: Homo sapiens, A2780, read-out: A2780 (IC50 μg/ml).
The mark [11] stands for this setting: KB-V1, read-out: KB-V1 (IC50; nM).
[12] abbreviates: KB 3-1, read-out: KB-3-1 (IC50; nM).
The mark [13] stands for this setting: A2780 human ovarian carcinoma, Table II, read-out: A2780 (IC50 μg/ml).

≈ marks a conversion by molar mass, not a printed value. Where two headings read alike, the source gives them in different places.

With `CC(=O)O[C@H]1C(=O)[C@]2(C)C=C[C@H]3OC[C@@]3(OC(C)=O)[C@H]2[C@H](OC(=O)c2ccccc2)[C@]2(O)CC(OC(=O)[C@H](OC(=O)OCC(Cl)(Cl)Cl)[C@@H](NC(=O)OC(C)(C)C)c3ccccc3)=C(C)[C@H]1C2(C)C` [Compound 15, 2'-Troc-13-(N-Boc-β-phenylisoserinyl)-7-deoxy-Δ^6,7 -Δ^12,13-iso-baccatin III], in experiment [1] (setting [5]), the IC50 came to 0.0066 µg/mL (≈ 6.55 nM).
As for `CC[Si](CC)(CC)O[C@H]1C[C@H]2OC[C@@]2(OC(C)=O)[C@H]2[C@H](OC(=O)c3ccccc3)[C@]3(O)CC(OC(=O)[C@H](O)[C@@H](NC(=O)NC(C)(C)C)c4ccccc4)=C(C)[C@H]([C@@H](OC(C)=O)C(=O)[C@]12C)C3(C)C` [Compound 32a, 7-TES-13-(N-(t-butylaminocarbonyl)-β-phenylisoserinyl)-Δ^12,13-iso-baccatin III], in experiment [1] (setting [5]), the IC50 was determined as 0.07 µg/mL (≈ 72.7 nM).
Regarding `CCOCO[C@H]1C[C@H]2OC[C@@]2(OC(C)=O)[C@H]2[C@H](OC(=O)c3ccccc3)[C@]3(O)CC(OC(=O)[C@H](O)[C@@H](NC(=O)NC(C)(C)C)c4ccccc4)=C(C)[C@H]([C@@H](OC(C)=O)C(=O)[C@]12C)C3(C)C` [Compound 43, 7-(O-ethoxymethyl)-13-(N-(t-butylaminocarbonyl)-β-phenylisoserinyl)-Δ^12,13-iso-baccatin III], the results for the IC50 in experiment [2] (setting [6]) and in experiment [1] (setting [8]) were 120 nM and 0.0014 µg/mL (≈ 1.54 nM), respectively. The “Ratio: KBV-1/KB-3-1” value in experiment [2] (setting [7]) is recorded as 2.5 × 10^5.
Take `CC(=O)O[C@H]1C(=O)[C@@]2(C)[C@H]([C@H](OC(=O)c3ccccc3)[C@]3(O)CC(OC(=O)[C@H](O)[C@@H](NC(=O)OC(C)(C)C)c4ccccc4)=C(C)[C@H]1C3(C)C)[C@]1(OC(C)=O)CO[C@@H]1C[C@@H]2O` [Compound 7, 13-(N-Boc-β-phenylisoserinyl)-Δ^12,13-iso-baccatin III]: the IC50 was determined as 40 nM in experiment [2] (setting [6]), 0.2 nM in experiment [3] (setting [9]) and 0.0046 µg/mL (≈ 5.41 nM) in experiment [1] (setting [8]). Also, the “Ratio: KBV-1/KB-3-1” value in experiment [2] (setting [7]) came out at 228.
As to `CSCO[C@H]1C[C@H]2OC[C@@]2(OC(C)=O)[C@H]2[C@H](OC(=O)c3ccccc3)[C@]3(O)CC(OC(=O)[C@H](O)[C@@H](NC(=O)NC(C)(C)C)c4ccccc4)=C(C)[C@H]([C@@H](OC(C)=O)C(=O)[C@]12C)C3(C)C` [Compound 72, 7-(O-methylthiomethyl)-13-(N-t-butylaminocarbonyl-β-phenylisoserinyl)-Δ^12,13-iso-baccatin III], in experiment [4] (setting [10]), the IC50 is 0.0004 µg/mL (≈ 0.44 nM).
For the compound `CC(=O)O[C@H]1C(=O)[C@]23C[C@H]2C[C@H]2OC[C@@]2(OC(C)=O)[C@H]3[C@H](OC(=O)c2ccccc2)[C@]2(O)CC(OC(=O)[C@H](O)[C@@H](NC(=O)NC(C)(C)C)c3ccccc3)=C(C)[C@H]1C2(C)C` [Compound 36, 13-(N-(t-butylaminocarbonyl)-β-phenylisoserinyl)-7-deoxy-7β,8β-methano-Δ^12,13-iso-baccatin III], the IC50 in experiment [2] (setting [6]) was 360 nM; in experiment [3] (setting [9]), 0.05 nM. Further, in experiment [2] (setting [7]), the “Ratio: KBV-1/KB-3-1” value is 11,400.
With `COCO[C@H]1C[C@H]2OC[C@@]2(OC(C)=O)[C@H]2[C@H](OC(=O)c3ccccc3)[C@]3(O)CC(OC(=O)[C@H](O)[C@@H](NC(=O)NC(C)(C)C)c4ccccc4)=C(C)[C@H]([C@@H](OC(C)=O)C(=O)[C@]12C)C3(C)C` [Compound 67, 7-(O-methoxymethyl)-13-(N-t-butylaminocarbonyl-β-phenylisoserinyl)-Δ^12,13-iso-baccatin III], the IC50 in experiment [4] (setting [10]) worked out at 0.00042 µg/mL (≈ 0.47 nM).
`CC(=O)O[C@H]1C(=O)[C@]2(C)C(F)C[C@H]3OC[C@@]3(OC(C)=O)[C@H]2[C@H](OC(=O)c2ccccc2)[C@]2(O)CC(OC(=O)[C@H](O)[C@@H](NC(=O)OC(C)(C)C)c3ccccc3)=C(C)[C@H]1C2(C)C` (stereo partly drawn) [Compound 16, 13-(N-Boc-β-phenylisoserinyl)-7-deoxy-7-fluoro-Δ^12,13-iso-baccatin III]: in experiment [1] (setting [5]), the IC50 stood at 0.0029 µg/mL (≈ 3.4 nM).
On to `CC(=O)O[C@H]1C(=O)[C@]2(C)C=C[C@H]3OC[C@@]3(OC(C)=O)[C@H]2[C@H](OC(=O)c2ccccc2)[C@]2(O)CC(OC(=O)[C@H](O)[C@@H](NC(=O)NC(C)(C)C)c3ccccc3)=C(C)[C@H]1C2(C)C` [Compound 38, 13-(N-(t-butylaminocarbonyl)-β-phenylisoserinyl)-7-deoxy-Δ^6,7 -Δ^12,13-iso-baccatin III], for which the IC50 in experiment [2] (setting [11]) amounted to 360 nM; in experiment [3] (setting [12]), 0.078 nM. Besides, the “Ratio: KBV-1/KB-3-1” value in experiment [2] (human, kb-v1 vs kb-3-1 cells) is recorded as 4,800.
Regarding `CC(=O)O[C@H]1C(=O)[C@]23C[C@H]2C[C@H]2OC[C@@]2(OC(C)=O)[C@H]3[C@H](OC(=O)c2ccccc2)[C@]2(O)CC(OC(=O)[C@H](O)[C@@H](NC(=O)OC(C)(C)C)c3ccccc3)=C(C)[C@H]1C2(C)C` [Compound 17, 13-(N-Boc-β-phenylisoserinyl)-7-deoxy-7β,8β-methano-Δ^12,13-iso-baccatin III], the figures for the IC50 in experiment [2] (setting [11]), in experiment [3] (setting [12]) and in experiment [1] (setting [5]) were 13 nM, 0.22 nM and 0.0018 µg/mL (≈ 2.16 nM), respectively. For the same compound, the “Ratio: KBV-1/KB-3-1” value in experiment [2] (human, kb-v1 vs kb-3-1 cells) is 61. For the same compound, in experiment [1] (L1210, read-out: IC90 (90% growth inhibitory concentration)), the IC90 stood at 17 ng/mL (≈ 20.4 nM).
For the compound `COCO[C@H]1C[C@H]2OC[C@@]2(OC(C)=O)[C@H]2[C@H](OC(=O)c3ccccc3)[C@]3(O)CC(OC(=O)[C@H](O)[C@@H](NC(=O)OC(C)(C)C)c4ccccc4)=C(C)[C@H]([C@@H](OC(C)=O)C(=O)[C@]12C)C3(C)C` [Compound 66, 7-(O-methoxymethyl)-13-(N-Boc-β-phenylisoserinyl)-Δ^12,13-iso-baccatin III], the IC50 in experiment [2] (setting [6]) amounted to 0.046 nM; in experiment [4] (setting [13]), 0.00026 µg/mL (≈ 0.291 nM). Also, in experiment [2] (setting [7]), the “Ratio: KBV-1/KB-3-1” value is on record as 300.
Regarding `CO[C@H]1C[C@H]2OC[C@@]2(OC(C)=O)[C@H]2[C@H](OC(=O)c3ccccc3)[C@]3(O)CC(OC(=O)[C@H](O)[C@@H](NC(=O)NC(C)(C)C)c4ccccc4)=C(C)[C@H]([C@@H](OC(C)=O)C(=O)[C@]12C)C3(C)C` [Compound 73, 7-(O-methyl)-13-(N-t-butylaminocarbonyl-β-phenylisoserinyl)-Δ^12,13-iso-baccatin III], the IC50 in experiment [4] (setting [13]) is 0.00039 µg/mL (≈ 0.452 nM).
With `COCO[C@H]1C[C@H]2OC[C@@]2(OC(C)=O)[C@H]2[C@H](OC(=O)c3ccccc3)[C@]3(O)CC(OC(=O)[C@H](O)[C@@H](NC(=O)OCc4ccccc4)c4ccccc4)=C(C)[C@H]([C@@H](OC(C)=O)C(=O)[C@]12C)C3(C)C` [Compound 64, 7-(O-methoxymethyl)-13-(N-Cbz-β-phenylisoserinyl)-Δ^12,13-iso-baccatin III], the IC50 in experiment [4] (setting [10]) came out at 0.0029 µg/mL (≈ 3.13 nM).
As for `CC(=O)O[C@H]1C(=O)[C@]2(C)C=C[C@H]3OC[C@@]3(OC(C)=O)[C@H]2[C@H](OC(=O)c2ccccc2)[C@]2(O)CC(OC(=O)[C@H](O)[C@@H](NC(=O)OC(C)(C)C)c3ccccc3)=C(C)[C@H]1C2(C)C` [Compound 18, 13-(N-Boc-β-phenylisoserinyl)-7-deoxy-Δ^6,7 -Δ^12,13-iso-baccatin III], the IC50 in experiment [2] (setting [11]) turned out to be 6.2 nM; in experiment [3] (setting [12]), 0.2 nM; in experiment [1] (setting [5]), 0.0022 µg/mL (≈ 2.64 nM). Also, the “Ratio: KBV-1/KB-3-1” value in experiment [2] (human, kb-v1 vs kb-3-1 cells) is 34.
For `CCOCO[C@H]1C[C@H]2OC[C@@]2(OC(C)=O)[C@H]2[C@H](OC(=O)c3ccccc3)[C@]3(O)CC(OC(=O)[C@H](O)[C@@H](NC(=O)OC(C)(C)C)c4ccccc4)=C(C)[C@H]([C@@H](OC(C)=O)C(=O)[C@]12C)C3(C)C` [Compound 41, 7-(O-ethoxymethyl)-13-(N-Boc-β-phenylisoserinyl)-Δ^12,13-iso-baccatin III], the values for the IC50 in experiment [2] (setting [6]), in experiment [3] (setting [9]) and in experiment [1] (setting [8]) were 0.77 nM, 0.011 nM and 0.0007 µg/mL (≈ 0.771 nM), respectively. In addition, the “Ratio: KBV-1/KB-3-1” value in experiment [2] (setting [7]) was found to be 170.
Consider `CC[Si](CC)(CC)O[C@H]1C[C@H]2OC[C@@]2(OC(C)=O)[C@H]2[C@H](OC(=O)c3ccccc3)[C@]3(O)CC(OC(=O)[C@H](O)[C@@H](NC(=O)OC(C)(C)C)c4ccccc4)=C(C)[C@H]([C@@H](OC(C)=O)C(=O)[C@]12C)C3(C)C` [Compound 6, 7-TES-13-(N-Boc-β-phenylisoserinyl)-Δ^12,13-iso-baccatin III], for which, in experiment [1] (setting [5]), the IC50 was above 0.1 µg/mL.
Same read-out and setting: next, `CC(=O)O[C@H]1C(=O)[C@]2(C)[C@@H](OC(=O)OCC(Cl)(Cl)Cl)C[C@H]3OC[C@@]3(OC(C)=O)[C@H]2[C@H](OC(=O)c2ccccc2)[C@]2(O)CC(OC(=O)[C@H](O)[C@@H](NC(=O)OC(C)(C)C)c3ccccc3)=C(C)[C@H]1C2(C)C` [Compound 12, 7-Troc-13-(N-Boc-β-phenylisoserinyl)-Δ^12,13-iso-baccatin III]: 0.011 µg/mL (≈ 10.7 nM); `CC(=O)O[C@H]1C(=O)[C@]23C[C@H]2C[C@H]2OC[C@@]2(OC(C)=O)[C@H]3[C@H](OC(=O)c2ccccc2)[C@]2(O)CC(OC(=O)[C@H](OC(=O)OCC(Cl)(Cl)Cl)[C@@H](NC(=O)OC(C)(C)C)c3ccccc3)=C(C)[C@H]1C2(C)C` [Compound 14, 2'-Troc-13-(N-Boc-β-phenylisoserinyl)-7-deoxy-7b,8b-methano-Δ^12,13-iso-baccatin III]: 0.012 µg/mL (≈ 11.9 nM).
Regarding `CC(=O)O[C@@]12CO[C@@H]1C[C@H](O)[C@@]1(C)C(=O)[C@H](O)[C@H]3C(C)=C(OC(=O)[C@H](O)[C@@H](NC(=O)OC(C)(C)C)c4ccccc4)C[C@@](O)([C@@H](OC(=O)c4ccccc4)[C@H]21)C3(C)C` [Compound 8, 10-deacetyl-13-(N-Boc-β-phenylisoserinyl)-Δ^12,13-iso-baccatin III], in experiment [1] (setting [8]), the IC50 was determined as 0.0059 µg/mL (≈ 7.3 nM).
Consider `CC(=O)O[C@H]1C(=O)[C@@]2(C)[C@H]([C@H](OC(=O)c3ccccc3)[C@]3(O)CC(OC(=O)[C@H](O)[C@@H](NC(=O)NC(C)(C)C)c4ccccc4)=C(C)[C@H]1C3(C)C)[C@]1(OC(C)=O)CO[C@@H]1C[C@@H]2O` [Compound 32b, 13-(N-(t-butylaminocarbonyl)-β-phenylisoserinyl)-Δ^12,13-iso-baccatin III], for which the IC50 in experiment [2] (setting [6]) turned out to be 1100 nM; in experiment [3] (setting [9]) it was 0.081 nM; in experiment [1] (setting [8]) it was 0.0053 µg/mL (≈ 6.24 nM). In addition, the “Ratio: KBV-1/KB-3-1” value in experiment [2] (setting [7]) is given as 17,650.
